In patent publication US20240181111A1, “SYSTEMS AND METHODS FOR AIR SANITIZATION USING FORMULAS CONTAINING AN ORGANIC ACID” (The Clorox Company, priority 2022, published 2024):
“And” between values parts separate entries of the source, which are not always exact repeats. Identical values can stand only once. Like-named read-outs stand apart in the source and are kept apart here. Each block holds one molecule with its values, some of them ahead of it.

How the values were obtained:
[1] = cited from earlier work
[2] = cited from earlier work; remark: listed apart in the source
[3] = Candidate screening for antimicrobial synergy with lactic acid
Experimental: In addition to tested organic acids, a number of glycols, alcohols, diols and other candidates were also screened, for pairing with the organic acid. Viable candidates may also have: 1) a vapor pressure characteristics as noted above; 2) be soluble in water; and/or 3) have an ECHA Inhalation Threshold for the General Population of greater than 10 mg/m^3.
As such, while glycols may optionally be present, in an embodiment, the present formulations may be void, or substantially void of such glycol components (particularly propylene glycol and glycols including an ether group). The same may be said for various other candidate materials noted in Table 2.

[4] = cited from earlier work; remark: listed apart in the source
[5] = Acid dissociation of lactic acid; type: physicochemical; conditions: at a pH of 2.2
Text: In another aspect, the pH of the antimicrobial formulation is kept low. A low pH can be important for lactic acid or other acids to achieve air sanitization efficacy. […].

[6] = Table 2 candidates for pairing with the organic acid
[7] = Table 1 organic acids, standard conditions (e.g., 20° C. and 1 atmosphere)
[8] = organic acids, long term inhalation

Compound: CCC(O)CO (stereo not shown) [1,2-butanediol]
- Vapor Pressure [1, 6]: 10 Pa
- ECHA Inhalation Threshold for General Population ([2]; Table 2 candidates): No hazard identified

Compound: CCCCC(O)CO (stereo not shown) [1,2-hexanediol (HDO), 1,2-hexanediol]
- antimicrobial synergy with lactic acid [3]: synergy with lactic acid

Compound: CC(O)CCO (stereo not shown) [1,3-butanediol]
- Vapor Pressure [1, 6]: 26 Pa

Compound: CCCCCCCCCCCCO [1-dodecanol]
- ECHA Inhalation Threshold for General Population ([2]; Table 2 candidates): 77 mg/m^3

Compound: O=C(O)CCO [3-hydroxypropionic acid]
- Solubility in water (g of compound in 100 g of water at ~20° C.) [4]: Very soluble^1

Compound: CC(=O)O [acetic acid]
- Vapor Pressure [1, 7]: 2080^3 Pa
- ECHA local effects DNEL ([2]; local effects): 25 mg/m^3)^1

Compound: O=C(O)CCCCC(=O)O [adipic acid]
- Vapor Pressure [1, 7]: 9.70^1 Pa

Compound: O=C(O)c1ccccc1 [benzoic acid]
- Vapor Pressure [1, 7]: 0.11^1 Pa
- ECHA Inhalation Threshold for General Population [2, 8]: 1.5^3 mg/m^3

Compound: O=C(O)CO [glycolic acid]
- ECHA Inhalation Threshold for General Population [2, 8]: 2.6 mg/m^3 and 2.6^3 mg/m^3

Compound: CCCCCCC(=O)O [heptanoic acid]
- Solubility in water (g of compound in 100 g of water at ~20° C.) [4]: 0.2^2 g of compound in 100 g of water

Compound: CCCCCC(=O)O [hexanoic acid]
- Vapor Pressure [1, 7]: 5.80^1 Pa
- ECHA Inhalation Threshold for General Population [2, 8]: 4.35^3 mg/m^3

- fraction of lactic acid in the acidic form [5]: at least 95%
Compound: CC(O)C(=O)O (stereo not shown) [lactic acid]

Compound: O=C(O)CC(=O)O [malonic acid]
- ECHA Inhalation Threshold for General Population [2, 8]: 1.04^3 mg/m^3

Compound: CC(=O)C(=O)O [pyruvic acid]
- Solubility in water (g of compound in 100 g of water at ~20° C.) [4]: 100^1 g of compound in 100 g of water
- solubility ([4]; standard conditions (room temperature and 1 atm)): about 100 g/100 g water
